Data published in US9005633B2 (priority 2009, dated 2015).
Like-named read-outs stand apart in the source and are kept apart here.

Key:
Settings in all cases: 10 ug/ml AMT, 200 mW/cm2 UV-A
VEE TC 83 TVB 5215 = format: cell-based, Venezuelan Equine Encephalitis (VEE)
SLE TBH-28 CDC M29777 = assay: AMT photo-inactivation of arbovirus: Saint Louis Encephalitis; format: cell-based, Saint Louis Encephalitis (SLE)
YF (FMD 1240) = format: cell-based, Yellow Fever (YF)
[1] = tested on: WNV (CDC) M29539 (NY99-35262-11); assay: AMT photo-inactivation of arbovirus: West Nile Virus; format: cell-based, West Nile Virus (WNV)

## Cc1oc2c(C)c3oc(=O)cc(C)c3cc2c1CN.Cl [AMT, 4′-Aminomethyltrioxsalen hydrochloride]
VEE TC 83 TVB 5215; 0 minutes
  VEE TC 83 TVB 5215 titer after AMT and UV-A: 1.72E+09 PFU/ml
VEE TC 83 TVB 5215; 1 minute
  VEE TC 83 TVB 5215 titer after AMT and UV-A: 1.60E+08 PFU/ml
VEE TC 83 TVB 5215; 5 minutes
  VEE TC 83 TVB 5215 titer after AMT and UV-A: 4.80E+04 PFU/ml
VEE TC 83 TVB 5215; 10 minutes
  VEE TC 83 TVB 5215 titer after AMT and UV-A: 1.50E+02 PFU/ml
VEE TC 83 TVB 5215; 20 minutes
  VEE TC 83 TVB 5215 titer after AMT and UV-A: 0 PFU/ml
SLE TBH-28 CDC M29777; 0 minutes
  SLE TBH-28 CDC M29777 titer after AMT and UV-A: 3.20E+03 PFU/ml
SLE TBH-28 CDC M29777; 1 minute
  SLE TBH-28 CDC M29777 titer after AMT and UV-A: 8.00E+01 PFU/ml
SLE TBH-28 CDC M29777; 5 minutes
  SLE TBH-28 CDC M29777 titer after AMT and UV-A: 0 PFU/ml
SLE TBH-28 CDC M29777; 10 minutes
  SLE TBH-28 CDC M29777 titer after AMT and UV-A: 0 PFU/ml
SLE TBH-28 CDC M29777; 20 minutes
  SLE TBH-28 CDC M29777 titer after AMT and UV-A: 0 PFU/ml
YF (FMD 1240); 0 minutes
  YF (FMD 1240) titer after AMT and UV-A: 1.47E+05 PFU/ml
YF (FMD 1240); 1 minute
  YF (FMD 1240) titer after AMT and UV-A: 3.68E+04 PFU/ml
YF (FMD 1240); 5 minutes
  YF (FMD 1240) titer after AMT and UV-A: 9.00E+01 PFU/ml
YF (FMD 1240); 10 minutes
  YF (FMD 1240) titer after AMT and UV-A: 0 PFU/ml
YF (FMD 1240); 20 minutes
  YF (FMD 1240) titer after AMT and UV-A: 0 PFU/ml
[1]; 0 minutes
  WNV (CDC) M29539 (NY99-35262-11) titer after AMT and UV-A: 8.00E+04 PFU/ml
[1]; 1 minute
  WNV (CDC) M29539 (NY99-35262-11) titer after AMT and UV-A: 1.68E+04 PFU/ml
[1]; 5 minutes
  WNV (CDC) M29539 (NY99-35262-11) titer after AMT and UV-A: 5.00E+01 PFU/ml
[1]; 10 minutes
  WNV (CDC) M29539 (NY99-35262-11) titer after AMT and UV-A: 0 PFU/ml
[1]; 20 minutes
  WNV (CDC) M29539 (NY99-35262-11) titer after AMT and UV-A: 0 PFU/ml
